Test results: article PMC5218480 (PLoS ONE, 2017)

System: MV-4-11 cells
Experiment: Gene expression microarray analysis (Affymetrix PrimeView) and GSEA
Type: cell-based, human
Parameters: RFU PODN (11730768_x_at) / Fold change /veh PODN (11730768_x_at) / RFU LINC00158 (11744669_a_at) / Fold change /veh LINC00158 (11744669_a_at) / RFU DUSP10 (11751237_a_at) / Fold change /veh DUSP10 (11751237_a_at) / RFU ID3 (11757404_x_at) / Fold change /veh ID3 (11757404_x_at) / RFU PLEKHG5 (11737974_s_at) / Fold change /veh PLEKHG5 (11737974_s_at) / RFU LRRC4B (11730491_at) / Fold change /veh LRRC4B (11730491_at) / RFU GIMAP4 (11747438_a_at) / Fold change /veh GIMAP4 (11747438_a_at) / RFU KRT8 (11758183_x_at) / Fold change /veh KRT8 (11758183_x_at) / RFU CNN1 (11734310_a_at) / Fold change /veh CNN1 (11734310_a_at) / RFU VPS37D (11726825_at) / Fold change /veh VPS37D (11726825_at) / RFU C10orf10 (11716522_x_at) / Fold change /veh C10orf10 (11716522_x_at) / RFU KIR2DL2 /// KIR2DL4 /// KIR2DL5A /// KIR2DL5B /// KIR2DS1 /// KIR2DS2 /// KIR2DS3 /// KIR2DS4 /// KIR3DL3 /// KIR3DL3 /// KIR3DS1 (11738374_at) / Fold change /veh KIR2DL2 /// KIR2DL4 /// KIR2DL5A /// KIR2DL5B /// KIR2DS1 /// KIR2DS2 /// KIR2DS3 /// KIR2DS4 /// KIR3DL3 /// KIR3DL3 /// KIR3DS1 (11738374_at) / RFU C1QL1 (11718748_at) / Fold change /veh C1QL1 (11718748_at) / RFU TMPRSS4 (11747572_a_at) / Fold change /veh TMPRSS4 (11747572_a_at) / RFU HAMP (11756126_x_at) / Fold change /veh HAMP (11756126_x_at) / RFU RNFT2 (11725882_a_at) / Fold change /veh RNFT2 (11725882_a_at) / RFU NR4A2 (11747474_a_at) / Fold change /veh NR4A2 (11747474_a_at) / RFU ABCC12 (11746883_a_at) / Fold change /veh ABCC12 (11746883_a_at) / RFU TMEM136 (11760407_x_at) / Fold change /veh TMEM136 (11760407_x_at) / RFU CLDN22 /// WWC2 (11732394_at) / Fold change /veh CLDN22 /// WWC2 (11732394_at) / RFU HLA-DPB1 (11760878_x_at) / Fold change /veh HLA-DPB1 (11760878_x_at) / RFU SPINT1 (11716480_a_at) / Fold change /veh SPINT1 (11716480_a_at) / RFU GAP43 (11754022_s_at) / Fold change /veh GAP43 (11754022_s_at) / RFU A4GNT (11735810_at) / Fold change /veh A4GNT (11735810_at) / RFU PRB3 (11715151_x_at) / Fold change /veh PRB3 (11715151_x_at) / RFU TUBB4B (11761932_at) / Fold change /veh TUBB4B (11761932_at) / RFU CAPN14 (11732068_a_at) / Fold change /veh CAPN14 (11732068_a_at) / RFU TMCC2 (11721928_a_at) / Fold change /veh TMCC2 (11721928_a_at) / RFU IRGQ (11745062_a_at) / Fold change /veh IRGQ (11745062_a_at) / RFU FAM174B (11720279_a_at) / Fold change /veh FAM174B (11720279_a_at) / RFU TMPRSS4 (11748680_a_at) / Fold change /veh TMPRSS4 (11748680_a_at) / RFU FAM212B (11763350_a_at) / Fold change /veh FAM212B (11763350_a_at) / RFU PLEKHG5 (11743358_a_at) / Fold change /veh PLEKHG5 (11743358_a_at) / RFU ZSCAN30 (11745921_a_at) / Fold change /veh ZSCAN30 (11745921_a_at) / RFU CMKLR1 (11741424_a_at) / Fold change /veh CMKLR1 (11741424_a_at) / RFU LOC101060620 /// MAPK8IP1 (11723275_at) / Fold change /veh LOC101060620 /// MAPK8IP1 (11723275_at) / RFU SPTSSB (11747773_x_at) / Fold change /veh SPTSSB (11747773_x_at) / RFU PRSS12 (11739890_at) / Fold change /veh PRSS12 (11739890_at) / RFU BIN1 (11741810_x_at) / Fold change /veh BIN1 (11741810_x_at) / RFU WNT11 (11732464_a_at) / Fold change /veh WNT11 (11732464_a_at) / RFU C10orf10 (11716521_a_at) / Fold change /veh C10orf10 (11716521_a_at) / RFU C5orf56 (11738089_at) / Fold change /veh C5orf56 (11738089_at) / RFU CYB561 (11721691_x_at) / Fold change /veh CYB561 (11721691_x_at) / RFU ANKRD19P (11752326_a_at) / Fold change /veh ANKRD19P (11752326_a_at) / RFU OR2T12 /// OR2T33 /// OR2T8 (11738714_s_at) / Fold change /veh OR2T12 /// OR2T33 /// OR2T8 (11738714_s_at) / RFU VCAN (11748164_a_at) / Fold change /veh VCAN (11748164_a_at) / RFU JSRP1 (11732532_at) / Fold change /veh JSRP1 (11732532_at) / RFU KRTAP10-11 (11738290_x_at) / Fold change /veh KRTAP10-11 (11738290_x_at) / RFU MYO3A (11730013_a_at) / Fold change /veh MYO3A (11730013_a_at) / RFU EBF3 (11725865_a_at) / Fold change /veh EBF3 (11725865_a_at) / RFU CAMK2N1 (11719241_x_at) / Fold change /veh CAMK2N1 (11719241_x_at) / RFU C5orf56 (11738088_a_at) / Fold change /veh C5orf56 (11738088_a_at) / RFU OLFML3 (11715873_a_at) / Fold change /veh OLFML3 (11715873_a_at) / RFU LOC100653217 /// NTM (11731650_a_at) / Fold change /veh LOC100653217 /// NTM (11731650_a_at) / RFU MAPK11 (11762145_a_at) / Fold change /veh MAPK11 (11762145_a_at) / RFU FIZ1 (11724087_x_at) / Fold change /veh FIZ1 (11724087_x_at) / RFU OASL (11726364_x_at) / Fold change /veh OASL (11726364_x_at) / RFU SOX15 (11748057_x_at) / Fold change /veh SOX15 (11748057_x_at) / RFU CD79A (11719716_a_at) / Fold change /veh CD79A (11719716_a_at) / RFU HIST1H1D (11736915_at) / Fold change /veh HIST1H1D (11736915_at) / RFU CASKIN2 (11723855_a_at) / Fold change /veh CASKIN2 (11723855_a_at) / RFU LOC730098 (11760151_x_at) / Fold change /veh LOC730098 (11760151_x_at) / RFU OR4N2 (11742367_at) / Fold change /veh OR4N2 (11742367_at) / RFU PRRT2 (11749266_a_at) / Fold change /veh PRRT2 (11749266_a_at) / RFU SNX32 (11753110_a_at) / Fold change /veh SNX32 (11753110_a_at) / RFU CDHR5 (11726645_a_at) / Fold change /veh CDHR5 (11726645_a_at) / RFU RCAN1 (11760418_a_at) / Fold change /veh RCAN1 (11760418_a_at) / RFU FAM167A (11723789_a_at) / Fold change /veh FAM167A (11723789_a_at) / RFU FAM26E (11764081_at) / Fold change /veh FAM26E (11764081_at) / RFU ISYNA1 (11749810_s_at) / Fold change /veh ISYNA1 (11749810_s_at) / RFU ACY1 (11761880_at) / Fold change /veh ACY1 (11761880_at) / RFU 11764098_at / Fold change /veh 11764098_at / RFU SAMD14 (11745864_x_at) / Fold change /veh SAMD14 (11745864_x_at) / RFU NPB (11741838_a_at) / Fold change /veh NPB (11741838_a_at) / RFU TMPRSS6 (11731388_a_at) / Fold change /veh TMPRSS6 (11731388_a_at) / RFU KRTAP10-2 (11738614_at) / Fold change /veh KRTAP10-2 (11738614_at) / RFU ARHGAP8 /// PRR5-ARHGAP8 (11727945_x_at) / Fold change /veh ARHGAP8 /// PRR5-ARHGAP8 (11727945_x_at) / RFU KRTAP5-7 /// NADSYN1 (11734609_at) / Fold change /veh KRTAP5-7 /// NADSYN1 (11734609_at) / RFU RASL12 (11751679_a_at) / Fold change /veh RASL12 (11751679_a_at) / RFU CDKN2B (11736163_a_at) / Fold change /veh CDKN2B (11736163_a_at) / RFU PRF1 (11729649_at) / Fold change /veh PRF1 (11729649_at) / RFU, ZNF638 /// ZNF638-IT1 / Fold change vs veh, ZNF638 /// ZNF638-IT1 / RFU, PANK3 / Fold change vs veh, PANK3 / RFU, SH3YL1 / Fold change vs veh, SH3YL1 / RFU, ZEB2 / Fold change vs veh, ZEB2 / RFU, NRIP1 / Fold change vs veh, NRIP1 / RFU, PTTG1IP / Fold change vs veh, PTTG1IP / RFU, CAPN2 / Fold change vs veh, CAPN2 / RFU, MED14 / Fold change vs veh, MED14 / RFU, SNORA58 / Fold change vs veh, SNORA58 / RFU, C1orf63 / Fold change vs veh, C1orf63 / RFU, LRRFIP1 / Fold change vs veh, LRRFIP1 / RFU, NDUFAF7 / Fold change vs veh, NDUFAF7 / RFU, SLC12A2 / Fold change vs veh, SLC12A2 / RFU, IBTK / Fold change vs veh, IBTK / RFU, ESF1 / Fold change vs veh, ESF1 / Fold change vs veh, TMEM50B / RFU, TAOK1 / Fold change vs veh, TAOK1 / RFU, ACBD3 / Fold change vs veh, ACBD3 / RFU, TMA16 / Fold change vs veh, TMA16 / RFU, RWDD3 / Fold change vs veh, RWDD3 / RFU, BCAT1 / Fold change vs veh, BCAT1 / RFU, EDEM3 / Fold change vs veh, EDEM3 / RFU, TMEM33 / Fold change vs veh, TMEM33 / RFU, WDR75 / Fold change vs veh, WDR75 / RFU, AHCTF1 / Fold change vs veh, AHCTF1 / RFU, TFRC / Fold change vs veh, TFRC / RFU, ZDHHC17 / Fold change vs veh, ZDHHC17 / RFU, NOM1 / Fold change vs veh, NOM1 / RFU, ARL8B / Fold change vs veh, ARL8B / RFU, ZBTB11 / Fold change vs veh, ZBTB11 / RFU, TAMM41 / Fold change vs veh, TAMM41 / RFU, KIAA1704 /// LOC100996395 / Fold change vs veh, KIAA1704 /// LOC100996395 / RFU, ING1 / Fold change vs veh, ING1 / RFU, TRMT61B / Fold change vs veh, TRMT61B / RFU, FUBP3 / Fold change vs veh, FUBP3 / RFU, TP53 / Fold change vs veh, TP53 / RFU, TNKS2 / Fold change vs veh, TNKS2 / RFU, ZFP14 / Fold change vs veh, ZFP14 / RFU, ACTR2 / Fold change vs veh, ACTR2 / RFU, PPP3R1 / Fold change vs veh, PPP3R1 / RFU, PIK3R1 / Fold change vs veh, PIK3R1 / RFU, HNRNPA1 / Fold change vs veh, HNRNPA1 / RFU, RNF170 / Fold change vs veh, RNF170 / RFU, ZNF28 / Fold change vs veh, ZNF28 / RFU, RNGTT / Fold change vs veh, RNGTT / RFU, OGT / Fold change vs veh, OGT / RFU, BRD1 / Fold change vs veh, BRD1 / RFU, MARS / Fold change vs veh, MARS / RFU, ZNF655 / Fold change vs veh, ZNF655 / RFU, FAHD1 / Fold change vs veh, FAHD1 / RFU, BDP1 / Fold change vs veh, BDP1 / RFU, LRRCC1 / Fold change vs veh, LRRCC1 / RFU, ARID1A / Fold change vs veh, ARID1A / RFU, ZNF146 / Fold change vs veh, ZNF146 / RFU, ZNF330 / Fold change vs veh, ZNF330 / RFU, GPN3 / Fold change vs veh, GPN3 / RFU, C9orf123 / Fold change vs veh, C9orf123 / RFU, N4BP2L2 / Fold change vs veh, N4BP2L2 / RFU, ARFIP1 / Fold change vs veh, ARFIP1 / RFU, FAM179B / Fold change vs veh, FAM179B / RFU, BCL10 / Fold change vs veh, BCL10 / RFU, UHRF1BP1L / Fold change vs veh, UHRF1BP1L / RFU, BET1 / Fold change vs veh, BET1 / RFU, CNOT2 / Fold change vs veh, CNOT2 / RFU, ZNF268 / Fold change vs veh, ZNF268 / Fold change vs veh, ZNF507 / RFU, DGCR2 / Fold change vs veh, DGCR2 / RFU, WDSUB1 / Fold change vs veh, WDSUB1 / Fold change vs veh, HSP90B1 /// MIR3652 / RFU, ADSS / Fold change vs veh, ADSS / RFU, GK / Fold change vs veh, GK / RFU, ZNF148 / Fold change vs veh, ZNF148 / RFU, TAF9 / Fold change vs veh, TAF9 / RFU, SLC1A5 / Fold change vs veh, SLC1A5 / RFU, SLMO2 / Fold change vs veh, SLMO2 / RFU, ABCC4 / Fold change vs veh, ABCC4 / RFU, LOC101060439 /// RAP1B / Fold change vs veh, LOC101060439 /// RAP1B / RFU, RFX7 / Fold change vs veh, RFX7 / RFU, GTPBP10 / Fold change vs veh, GTPBP10 / RFU, CNEP1R1 / Fold change vs veh, CNEP1R1 / RFU, BIVM-ERCC5 /// ERCC5 / Fold change vs veh, BIVM-ERCC5 /// ERCC5 / RFU, ILF3 / Fold change vs veh, ILF3 / RFU 11762660_at / Fold change /veh 11762660_at / RFU VCAN (11757783_s_at) / Fold change /veh VCAN (11757783_s_at) / RFU DDX43 (11728927_at) / Fold change /veh DDX43 (11728927_at) / RFU KRT8 (11758188_x_at) / Fold change /veh KRT8 (11758188_x_at) / RFU NKD1 (11759106_at) / Fold change /veh NKD1 (11759106_at) / RFU SRD5A1 (11742802_a_at) / Fold change /veh SRD5A1 (11742802_a_at) / RFU TPSAB1 /// TPSB2 (11721975_s_at) / Fold change /veh TPSAB1 /// TPSB2 (11721975_s_at) / RFU GSTM3 (11746129_a_at) / Fold change /veh GSTM3 (11746129_a_at) / RFU IL23R (11737362_x_at) / Fold change /veh IL23R (11737362_x_at) / RFU TMEM51 (11727254_a_at) / Fold change /veh TMEM51 (11727254_a_at) / RFU PIWIL2 (11732686_x_at) / Fold change /veh PIWIL2 (11732686_x_at) / RFU ORM1 (11744905_x_at) / Fold change /veh ORM1 (11744905_x_at) / RFU CCDC152 (11743942_at) / Fold change /veh CCDC152 (11743942_at) / RFU ECM1 (11717891_a_at) / Fold change /veh ECM1 (11717891_a_at) / RFU IL23R (11748794_a_at) / Fold change /veh IL23R (11748794_a_at) / RFU TNFAIP8L3 (11732012_x_at) / Fold change /veh TNFAIP8L3 (11732012_x_at) / RFU MBOAT4 (11741988_at) / Fold change /veh MBOAT4 (11741988_at) / RFU 11764193_at / Fold change /veh 11764193_at / RFU TMEM53 (11763286_at) / Fold change /veh TMEM53 (11763286_at) / RFU MAGEB2 (11727129_at) / Fold change /veh MAGEB2 (11727129_at) / RFU TMEM200A (11744735_a_at) / Fold change /veh TMEM200A (11744735_a_at) / RFU CCDC152 (11751479_a_at) / Fold change /veh CCDC152 (11751479_a_at) / RFU FAM211A (11726209_a_at) / Fold change /veh FAM211A (11726209_a_at) / RFU RGS16 (11746705_a_at) / Fold change /veh RGS16 (11746705_a_at) / RFU VCAN (11755009_s_at) / Fold change /veh VCAN (11755009_s_at) / RFU RHOB (11743442_s_at) / Fold change /veh RHOB (11743442_s_at) / RFU RGS16 (11720943_a_at) / Fold change /veh RGS16 (11720943_a_at) / RFU RGS16 (11720944_at) / Fold change /veh RGS16 (11720944_at) / RFU, VPS4B / Fold change vs veh, VPS4B / RFU, CREB1 / Fold change vs veh, CREB1 / RFU, DNAJC13 / Fold change vs veh, DNAJC13 / RFU, GNAQ / Fold change vs veh, GNAQ / RFU, CDK5R1 / Fold change vs veh, CDK5R1 / RFU, ZRANB3 / Fold change vs veh, ZRANB3 / RFU, CUL4A / Fold change vs veh, CUL4A / RFU, CCNY / Fold change vs veh, CCNY / RFU, UFL1 / Fold change vs veh, UFL1 / RFU, COG3 / Fold change vs veh, COG3 / RFU, DIAPH2 / Fold change vs veh, DIAPH2 / RFU, SKA2 / Fold change vs veh, SKA2 / RFU, AFF3 / Fold change vs veh, AFF3 / RFU, LMF1 / Fold change vs veh, LMF1 / RFU, IPO11 / Fold change vs veh, IPO11 / RFU, DFFB / Fold change vs veh, DFFB / RFU, FOXP1 / Fold change vs veh, FOXP1 / RFU, CARD8 / Fold change vs veh, CARD8 / RFU, STRN3 / Fold change vs veh, STRN3 / RFU, ADK / Fold change vs veh, ADK / RFU, RASSF2 / Fold change vs veh, RASSF2 / RFU, WIPF1 / Fold change vs veh, WIPF1 / RFU, LARP1B / Fold change vs veh, LARP1B / RFU, RASA1 / Fold change vs veh, RASA1 / RFU, RB1 / Fold change vs veh, RB1 / RFU, PPFIA1 / Fold change vs veh, PPFIA1 / RFU, MAT2A / Fold change vs veh, MAT2A / RFU, CCT5 / Fold change vs veh, CCT5 / RFU, WDR92 / Fold change vs veh, WDR92 / RFU, CUX1 / Fold change vs veh, CUX1 / RFU, TTC7A / Fold change vs veh, TTC7A / RFU, TMEM135 / Fold change vs veh, TMEM135 / RFU, DEPTOR / Fold change vs veh, DEPTOR / RFU, CPM / Fold change vs veh, CPM / RFU, DNAJB6 / Fold change vs veh, DNAJB6 / RFU, CACNA2D3 / Fold change vs veh, CACNA2D3 / RFU, DTX4 / Fold change vs veh, DTX4 / RFU, TFCP2 / Fold change vs veh, TFCP2 / RFU, GMCL1 /// GMCL1P1 / Fold change vs veh, GMCL1 /// GMCL1P1 / RFU, AEBP2 / Fold change vs veh, AEBP2 / RFU, SNHG1 /// SNORD22 /// SNORD25 /// SNORD26 /// SNORD27 /// SNORD28 /// SNORD29 /// SNORD31 / Fold change vs veh, SNHG1 /// SNORD22 /// SNORD25 /// SNORD26 /// SNORD27 /// SNORD28 /// SNORD29 /// SNORD31 / Fold change (Aza/veh), C12orf56 (ProbeSet 11735607_a_at) / Fold change (ACY-1035/veh), C12orf56 (ProbeSet 11735607_a_at) / Fold change (Aza/veh), FGFR1OP (ProbeSet 11751329_s_at) / Fold change (ACY-1035/veh), FGFR1OP (ProbeSet 11751329_s_at) / Fold change (Aza/veh), VPS36 (ProbeSet 11739960_a_at) / Fold change (ACY-1035/veh), VPS36 (ProbeSet 11739960_a_at) / RFU SYPL1 (11715823_x_at) / Fold change /veh SYPL1 (11715823_x_at) / RFU IGFBP7 (11715501_s_at) / Fold change /veh IGFBP7 (11715501_s_at) / RFU REEP3 (11722064_at) / Fold change /veh REEP3 (11722064_at) / RFU IGLL1 (11728026_x_at) / Fold change /veh IGLL1 (11728026_x_at): dose or concentration left out as unconfirmed
Settings: ProbeSet 11740011_at; LIST B

SMILES: Nc1ccc(-c2cccs2)cc1NC(=O)c1ccc2c(c1)cc(C1CC1)n2CCN1CCOCC1 [ACY-1035]
- RFU, ZFP14: 75.53 RFU
